Among the data in PMC11952966 (2025) are KD values, retold here.

Holding throughout (experiment): ITC
The subject of test [1] is FXd (DNA, aptamer) GGGACGACGGTGTGGGGGTAGGGGGTGTGGGAAGCGGCGTCGTCCC
The settings on record: 23 °C; selection buffer (Supplementary Table S1); one-site model.

In test [2] the test system is OM7 (DNA, aptamer) GGGACGACATCGTAGGGGCACACGCTTAACGGGCTGATGTCGTCCC
Test [3] concerns NC423 (DNA, aptamer) CTTACGACTTGTTCTGAGGGTCAACGGTGGTGTAGTTAGTCGTAAG
Test [4] deals with NC1947 (DNA, aptamer) CTTACGACACAGGGCGTGGAGTGGCTGGGCTTCAAGGGGTCGTAAG
For test [5], the system named is NCB (DNA, aptamer) CTTACGACACAGGGCGTGGAGGAGCTGGGCTATTAGGGGTCGTAAG

For the molecule `Cc1c(Nc2ncccc2C(=O)O)cccc1C(F)(F)F`, the dissociation constant (KD) in test [1] amounted to 27400 nM.

Molecule `COc1ccc2c3c1O[C@H]1C(=O)CC[C@@]4(O)[C@@H](C2)N(C)CC[C@]314` showed a dissociation constant KD in test [2] of 1400 nM.

Regarding `COC(=O)[C@H]1[C@@H](OC(=O)c2ccccc2)C[C@@H]2CC[C@H]1N2C`, the results for the KD in test [3], in test [4] and in test [5] were 22 nM, 123 nM and 1000 nM, respectively.
